Assay results taken from ChEMBL document CHEMBL1201862, “PubChem BioAssay data set” (2004).
Activity calls are given as the source filed them.

Experiments:
[1] = target: Protein disulfide-isomerase (Homo sapiens, UniProt P07237); experiment: inhibition of PDI-mediated insulin reduction – biochemical, turbidity, dry powder samples, set 2, confirmation (AID 652146)
[2] = cells; settings: HEK293
[3] = target: FAD-linked sulfhydryl oxidase ALR (Homo sapiens, UniProt P55789); experiment: ALR-catalysed DTT oxidation blockers – biochemical, H2O2 detection, luminescence, cherry-pick, dose response (AID 493248)
[4] = Luminescence Cell-Based Dose Response HTS to Identify Activators of Luciferase Translation or Activity in H4 […] Cells. [Related pubchem assays: 1829 (Project Summary), 1814 (Primary HTS)]; type: functional
[5] = viability loss in HepG2 liver cells – cell-based, ATP luminescence, cherry-pick, set 6, cytotoxicity control, dose response (AID 1053125); type: functional
[6] = cytotoxicity toward MDA-MB-231 breast cancer cells – cell-based, CellTiter-Glo luminescence, cherry-pick, cytotoxicity control for RAD54 inhibitor project, dose response (AID 651692); type: functional
[7] = target: T1, DNA repair and recombination protein RAD54-like (Homo sapiens, UniProt Q92698); experiment: RAD54 Holliday junction migration blockers – biochemical, fluorescence, cherry-picked samples, dose series, confirmation (AID 651657); type: functional
T1 sequence (Q92698 whole entry): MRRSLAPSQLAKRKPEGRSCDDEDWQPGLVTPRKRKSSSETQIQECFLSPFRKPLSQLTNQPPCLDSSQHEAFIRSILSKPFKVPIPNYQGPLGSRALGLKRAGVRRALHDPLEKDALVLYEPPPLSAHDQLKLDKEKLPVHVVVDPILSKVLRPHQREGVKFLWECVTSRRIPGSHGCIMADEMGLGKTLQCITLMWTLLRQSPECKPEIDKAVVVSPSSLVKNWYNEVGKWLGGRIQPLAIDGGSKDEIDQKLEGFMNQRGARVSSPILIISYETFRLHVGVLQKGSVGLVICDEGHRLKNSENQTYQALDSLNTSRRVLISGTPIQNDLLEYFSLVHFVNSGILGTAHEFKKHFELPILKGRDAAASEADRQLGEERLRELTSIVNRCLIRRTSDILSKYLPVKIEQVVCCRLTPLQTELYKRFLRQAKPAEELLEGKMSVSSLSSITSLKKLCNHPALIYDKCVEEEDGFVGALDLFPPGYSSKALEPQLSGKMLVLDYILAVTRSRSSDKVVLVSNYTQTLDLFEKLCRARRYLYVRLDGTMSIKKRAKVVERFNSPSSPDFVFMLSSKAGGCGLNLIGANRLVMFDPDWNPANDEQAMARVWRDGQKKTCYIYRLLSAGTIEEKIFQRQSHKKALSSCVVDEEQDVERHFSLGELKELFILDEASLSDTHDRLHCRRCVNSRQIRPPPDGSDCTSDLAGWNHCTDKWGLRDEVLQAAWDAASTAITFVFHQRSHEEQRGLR

[8] = cells
[9] = target: T2, Ubiquitin-conjugating enzyme E2 N (Homo sapiens, UniProt P61088); type: functional;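 further: Dose-response confirmation in a TR-FRET assay detecting UBC13-driven polyubiquitin chain formation, inhibition measured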
T2 sequence (P61088 whole entry): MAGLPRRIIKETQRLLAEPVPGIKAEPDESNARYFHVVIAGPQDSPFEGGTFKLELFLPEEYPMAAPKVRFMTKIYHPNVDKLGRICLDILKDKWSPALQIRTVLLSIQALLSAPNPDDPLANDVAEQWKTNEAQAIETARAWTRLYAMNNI

[10] = test system: H4; experiment: Luminescence Cell-Based Dose Response HTS to Identify Activators of 5'UTR Stem-Loop Driven Prion Protein mRNA Translation in H4 Neuroglioblastoma Cells. [Related pubchem assays: 1829 (Project Summary), 1814 (Primary HTS)]; type: functional; settings: Homo sapiens
[11] = cells; settings: A549
[12] = cytotoxicity in MITF-independent A375 cells – cell-based, CellTiter-Glo luminescence, dry powder, set 4, counter-screen for MITF inhibitor project, dose response (AID 624364); type: functional; settings: A-375;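 further: A375 melanoma cells are MITF independent so this is a counter screen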
[13] = viability loss in MITF-independent A375 cells – cell-based, CellTiter-Glo luminescence, dry powder, set 2, counter-screen for MITF inhibitor project, dose response (AID 624489); type: functional; settings: A-375;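 further: actives are compounds lowering A375 viability meaning general cytotoxicity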
[14] = inhibitors of non-replicating M. tuberculosis, dose response, luciferase, dry powder (AID 651619); type: functional; settings: Mycobacterium tuberculosis
[15] = inhibitors of non-replicating M. tuberculosis, dose response, luciferase, dry powder (AID 651620); type: functional; settings: Mycobacterium tuberculosis
[16] = target: T3, NAD-dependent protein deacylase sirtuin-5, mitochondrial (Homo sapiens, UniProt Q9NXA8); experiment: blockers of sirtuin-5 peptide desuccinylation – biochemical, fluorescence imaging, cherry-pick, set 6, dose response (AID 720597)
[17] = inhibitors of TRPM1-promoter reporter in SK-MEL-5 – cell-based, luciferase, dry powder, set 8, MITF inhibitor project, dose response (AID 624430); type: functional
[18] = MITF Orthogonal Assay: SK-MEL-5 CTG Assay Measured in Cell-Based System Using Plate Reader - 2084-02_Inhibitor_Dose_DryPowder_Activity_Set7.; type: functional
[19] = MITF: Counter assay: A375 proliferation Measured in Cell-Based System Using Plate Reader - 2084-03_Inhibitor_Dose_DryPowder_Activity_Set8.; type: functional; settings: A-375
[20] = target: NS3 (Hepatitis C virus, UniProt A3EZJ3); experiment: NS3h DNA-binding inhibition IC50 – biochemical, fluorescence polarization, ChemBridge library, dose response (AID 743264)
[21] = test system: BJ; experiment: growth inhibition of engineered Ras-driven BJ cells – cell-based, alamar blue fluorescence, cherrypicked samples, dose response (AID 2631); type: functional; settings: Homo sapiens;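 further: confirmatory dose-response assay in RAS-dependent BJ fibroblasts engineered with TERT, LT and ST, with cytotoxicity read by fluorescence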
[22] = target: Luciferin 4-monooxygenase (Photinus pyralis, UniProt P08659); experiment: inhibition of purified Photinus pyralis luciferase – biochemical, luminescence, dose response (AID 1891)
[23] = test system: BJ; experiment: BJ-TERT fibroblast viability loss – cell-based, RAS-independent, luminescence, dose response (AID 1933); type: functional; settings: Homo sapiens
[24] = alpha-synuclein stem-loop luciferase translation blockers – H4 neuroglioma cells, luminescence, confirmation (AID 1988); type: functional, cell-based
[25] = test system: BJ; experiment: BJ-TERT-LT-ST fibroblast viability loss – cell-based, RAS-independent, luminescence, dose response (AID 1935); type: functional; settings: Homo sapiens;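 further: BJ fibroblasts immortalized with TERT plus LT and ST oncogenes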
[26] = target: T4, Rac GTPase-activating protein 1 (Homo sapiens, UniProt Q9H0H5); experiment: blockers of MgcRacGAP-driven Rac1 GTP hydrolysis – biochemical, ADP Hunter fluorescence, primary and confirmatory, confirmation (AID 624330); type: functional
T4 sequence (Q9H0H5 whole entry): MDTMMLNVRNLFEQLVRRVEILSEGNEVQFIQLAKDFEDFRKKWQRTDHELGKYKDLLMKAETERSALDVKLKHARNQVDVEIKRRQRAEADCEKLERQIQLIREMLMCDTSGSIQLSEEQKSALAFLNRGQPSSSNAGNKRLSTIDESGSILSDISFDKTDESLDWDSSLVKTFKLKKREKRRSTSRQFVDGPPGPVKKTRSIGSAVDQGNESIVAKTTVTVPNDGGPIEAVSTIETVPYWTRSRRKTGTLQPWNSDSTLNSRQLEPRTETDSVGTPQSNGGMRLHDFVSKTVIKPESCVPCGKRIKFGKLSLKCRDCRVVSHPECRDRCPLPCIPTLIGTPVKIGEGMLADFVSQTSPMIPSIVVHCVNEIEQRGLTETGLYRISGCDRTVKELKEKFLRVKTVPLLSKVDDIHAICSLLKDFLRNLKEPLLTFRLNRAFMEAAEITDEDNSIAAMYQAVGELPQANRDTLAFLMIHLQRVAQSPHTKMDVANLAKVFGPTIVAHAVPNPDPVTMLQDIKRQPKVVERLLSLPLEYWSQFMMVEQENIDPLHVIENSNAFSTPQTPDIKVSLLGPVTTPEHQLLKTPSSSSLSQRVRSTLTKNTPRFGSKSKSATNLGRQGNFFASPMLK

[27] = target: Nonstructural protein 1 (Influenza A virus, UniProt Q194T2); type: functional, Influenza A virus (A/California/07/2009(H1N1))
[28] = general mammalian cell viability loss – activator set, cherry-pick, cytotoxicity control for miR-122 modulator project, dose response (AID 720690); type: functional, cell-based;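 further: HEK293T human cells scored for general mammalian cytotoxicity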
[29] = DRD fibroblast viability loss – cell-based, non-viral oncogenic, luminescence, dose response (AID 1934); type: functional; settings: Homo sapiens
[30] = target: Large T antigen (Simian virus 40, UniProt P03070); type: functional, Betapolyomavirus macacae;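 further: Confirmatory-stage PubChem screen for compounds that inhibit SV40 T antigen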
[31] = Luminescence Cell-Based Dose Confirmation HTS to Identify Inhibitors of Platelet Dense Granule Release. [Related pubchem assays: 1663 (Primary HTS), 1678 (Summary of Project)]; type: functional
[32] = test system: BJ; experiment: cells; type: functional, cell-based; settings: Homo sapiens
[33] = luciferase reporter signal suppression in cells – H4 neuroglioma cells, luminescence, dose response (AID 1990); type: functional, cell-based
[34] = Luminescence Cell-Based Dose Response HTS to Identify Inhibitors of 5'UTR Stem-Loop Driven Prion Protein mRNA Translation in H4 Neuroglioblastoma Cells. [Related pubchem assays: 1827 (Project Summary), 1813 (Primary HTS)]; type: functional
[35] = general mammalian cell viability loss – inhibitor set, cherry-pick, set 2, cytotoxicity control for miR-122 modulator project, dose response (AID 720697); type: functional, cell-based
[36] = target: T3, NAD-dependent protein deacylase sirtuin-5, mitochondrial; experiment: sirtuin-5 deacylation blockers, concentration series – biochemical, fluorescence imaging, cherry-pick, set 5, dose response (AID 720591);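 further: desuccinylation of succinyl peptide AMC substrate read as fluorescence after trypsin release; potency of inhibitors that lower fluorescence and may act on trypsin instead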
[37] = cells; remark: listed apart in the source
[38] = target: Major prion protein (Homo sapiens, UniProt P04156); type: functional, cell-based
[39] = cells; type: functional, cell-based
[40] = target: Oxysterols receptor LXR-beta (Homo sapiens, UniProt P55055); type: functional, cell-based;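 further: agonist activity at LXR measured by a cell-based luminescence readout across a dose range, run as a counterscreen for daf-12 agonists; HEK293 cells with Gal4-LXR fusion and GAL4-driven luciferase reporter; potency for activation of Gal4-LXR reporter so compounds are agonists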
[41] = viability loss in HepG2 hepatoma cells – cell-based, ATP luminescence, cherry-pick, activator set 2, cytotoxicity control, dose response (AID 1053143); type: functional
[42] = cells; type: functional, cell-based; remark: listed apart in the source
[43] = Luminescence Cell-Based Dose Confirmation HTS to Identify Activators of 5'UTR Stem-Loop Driven Alpha-Synuclein mRNA Translation in H4 Neuroglioblastoma Cells. [Related pubchem assays: 1829 (Project Summary), 1814 (Primary HTS)]; type: functional
[44] = target: Disintegrin and metalloproteinase domain-containing protein 17 (Homo sapiens, UniProt P78536); experiment: inhibition of ADAM17 substrate cleavage – biochemical, quenched FRET substrate, counter-screen for ADAM10 exosite inhibitor project, dose response (AID 743253)
[45] = potency of ADAM10 substrate cleavage blockers – biochemical, QFRET, dose response (AID 743254);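 further: ADAM10 enzyme with the DM2 quenched FRET peptide as substrate; EDANS fluorescence gain as the protease cuts the substrate; inhibitor potency against ADAM10 proteolytic activity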
[46] = target: Potassium channel subfamily K member 3 (Homo sapiens, UniProt O14649); experiment: inhibition of human KCNK3 channel flux – CHO cells, FluxOR thallium flux, SAR follow-up (AID 652212); type: functional
[47] = target: Potassium channel subfamily K member 9 (Homo sapiens, UniProt Q9NPC2); experiment: KCNK9 flux blockade, concentration-response – cell-based, FluxOR thallium flux, selectivity assay for TASK1 inhibitor project, SAR follow-up (AID 652211); type: functional;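 further: potency is for inhibitors of the channel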

O=C(Nc1ccccc1)C1(CCOc2ccccc2)CCN(Cc2ccc(O)c(Cl)c2)CC1
AC50 [1]: 15 µM (active)

Cc1cc2oc3cc(NCCC4CCCN4C)ccc3c(=O)c2cc1C (centres undefined)
AC50 [2]: 12.4 µM (active)
AC50 [3]: 0.287 µM (active)
EC50 [4]: 0.113 µM (active)
AC50 [5]: 11.2 µM (active)
AC50 [6]: 22.6 µM (active)
AC50 [7]: 13.3 µM (active)
AC50 [8]: 35 µM (active)
IC50 [9]: > 20 µM (inactive)
EC50 [10]: 45.4 µM (active)
AC50 [11]: 9.92 µM (active)

CC(=O)N(C)C1=C(N2CCN(C)CC2)C(=O)c2ccccc2C1=O
AC50 [12]: 12.1 µM (active)
AC50 [13]: 5.65 µM (active)

[N-]=[N+]=NCCOCCNC(=O)CCCOc1ccc(-c2nnc(SCc3ccccn3)o2)cc1
IC90 [14]: 31 µM (active)
IC90 [15]: 31 µM (active)

COCC(=O)NC[C@@H]1N[C@@H](CO)[C@H]1c1ccc(C2=CCCCC2)cc1
AC50 [16]: > 30 µM (inactive)

CCN1CCN(C2=C(Nc3ccc(I)cc3)C(=O)c3ccccc3C2=O)CC1
AC50 [17]: 1.48 µM (active)
AC50 [18]: 7.26 µM (active)
AC50 [19]: 16.8 µM (active)

O=C1C=CC(=O)N1c1ccc(Br)cc1[N+](=O)[O-]
IC50 [20]: 22.4 µM (inactive)

Oc1ccc(/C=N/Nc2nccnc2Cl)c(O)c1
EC50 [21]: 6.12 µM (active)
EC50 [22]: 1.05 µM (active)
EC50 [23]: 10.7 µM (active)
EC50 [24]: 3.7 µM (active)
EC50 [25]: 10.9 µM (active)
IC50 [26]: 12.7 µM (active)
IC50 [27]: 9.11 µM (active)
AC50 [28]: 16.5 µM (active)
EC50 [29]: 13.4 µM (active)
IC50 [30]: 16.7 µM (active)
EC50 [31]: 0.254 µM (active)
EC50 [32]: 5.07 µM (active)
EC50 [33]: 7.09 µM (active)
EC50 [34]: 6.33 µM (active)
AC50 [35]: 3.85 µM (active)

COc1ccc(C(C(=O)NC(C)(C)C)N(Cc2ccco2)C(=O)CCC(=O)Nc2cc(C)on2)cc1 (centres undefined)
AC50 [36]: 23.5 µM (active)

Cc1nc(SCC(=O)Nc2cc(C(N)=O)cc(C(N)=O)c2)c2c(C)c(C)sc2n1
IC50 [37]: > 138 µM (inactive)
IC50 [38]: 11.6 µM (inactive)

O=C(NCCc1ccccc1)c1cc(-c2ccco2)on1
EC50 [39]: 11.8 µM (active)
EC50 [40]: > 67.5 µM (inactive)
EC50 [4]: 0.116 µM (active)
AC50 [41]: 26 µM (active)
EC50 [42]: 339 µM (active)
EC50 [10]: > 120 µM (not active)
EC50 [43]: 3.89 µM (active)

COc1cc(OC)c(N(C)S(=O)(=O)c2cccc(C(=O)OCC(=O)c3c[nH]c4ccccc34)c2)cc1Cl
IC50 [44]: > 69.5 µM (inactive)
IC50 [45]: > 69.5 µM (inactive)

CCOc1ccccc1NC(=O)c1cccc(NC(=O)CC2CCCCC2)c1
IC50 [46]: 0.217 µM (active)
IC50 [47]: 1.92 µM (active)
